Results from US20150175585A1, “FUSED QUINONIC COMPOUNDS” (CENTRO ATLANTICO DEL MEDICAMENTO S.A (CEAMED, S.A.), priority 2012, published 2015).
pIC50: −log10 of the molar value. Read-outs that look alike come from different tables or passages of the source.

Columns and labels:
STAT5 = STAT5 phosphorylation western blot assay; format: cell-based, human; details: 10 microM, HEL or K562 cells (table does not say which)
Description: (§1) The Human Erythroleukemia cell line HEL and the human Chronic Myeloid Leukemia cell line K562 were cultured in RPM I 1640 medium containing 10% fetal bovine serum (FBS) and 50 U/ml penicillin/50 U/ml streptomycin at 37° C. in a 5% CO2 humidified atmosphere to a density of 300.000 viable cells/mL in presence of WP1066 (positive control of phosphorylation inhibition) (Verstovsek et al., 2008) or CM-363 at concentrations of 1, 5 and 10 μM. Cell culture reagents were all obtained from BioWhittaker® (Lonza, Verniers, Belgium). Cell growth and viability was determined by propidium iodide (fluorescent dye) exclusion method using the Accuchip 4× Counting Kit and the ADAM automatic cell counter (Digital-Bio, NanoEntek, Ic., Washington St, Mass., USA).As a control of unspecific phosphorylation, some cells in each experiment were exposed to vehicle (negative control of phosphorylation inhibition) (0.1% DMSO).
(§2) For total protein extraction, cells were scraped with RIPA 1× lysis buffer (25 mM Tris-HCl pH 7.6, 150 mM NaCl, 1% NP-40, 1% sodium deoxycholate, 0.1% SDS, no. 89900, Thermo Scientific, Rockford, Ill., USA) supplemented with 1× protease and 1× phosphatase inhibitor cocktails (100× Halt™ Protease Inhibitor Cocktail, no. 87786 and 100× Halt Phosphatase Inhibitor Cocktail, no. 78420, both from Thermo Scientific, Rockford, Ill., USA). An aliquot of each extract was preserved for protein quantification by bicinchoninic acid assay (Pierce® BCA Protein Assay Kit, no. 23225, Thermo Scientific, Rockford, Ill., USA).
(§3) Proteins were solubilized in sample buffer containing 0.0625 M Tris-HCl, pH 6.8, 2.3% (wt/vol) SDS, 10% (vol/vol) glycerol, 5% (vol/vol) f3-mercaptoethanol, and 0.001% (wt/vol) bromophenol blue and boiled at 95° C. for 5 min. Equal amounts (50 μg) of each sample were electrophoresed on 8-10% sodium dodecyl sulfate-polyacrylamide gel electrophoresis (SDS-PAGE) and transferred to nitrocellulose membranes (iBlot® Gel Transfer Stacks, Nitrocellulose, no. IB4010-02, Invitrogen, Barcelona, Spain) as described previously (Fernandez, L, et al., Endocrinology, 13, 1815-1824, 1998; B. Guerra et al., J. Neurochem, 91, 99-109, 2004; B. Guerra et al., J. Appl. Physiol., 102, 1786-1792, 2007; B. Guerra et al., J. Appl. Physiol., 111, 715-725, 2011). The nitrocellulose membranes were then removed from the iBlot® Dry GelTransfer Device (no. IB1001EU, Invitrogen, Barcelona, Spain) and placed in a Ponceau S staining solution (0.5% Ponceau S and 1% glacial acetic acid in water) to verify equal loading of protein in the control and treated samples. After the membranes were stained for 5 min, they were rinsed for 2 min and examined. Equal loading of protein was verified, and the membranes were rinsed for an additional 10 min and immunoscreened. Membranes were blocked with 5% blotting grade blocker nonfat dry milk in Tris Buffered Saline with 0.05% Tween 20 (TBST; blotto-blocking buffer) for at least […]) at room temperature. They were washed thrice in TBS with 0.1% Tween 20 (TBST-0.1). Next, the membranes were incubated over night at 4° C. with the appropriate anti-phospho-antibodies (described below) all diluted (1:1000) in 1% bovine serum albumin (BSA)-1% blotto in TBST (BSA-blotto blocking buffer). […] Membranes were stripped of bound antibodies by incubation in stripping buffer (Restore™ Western Blot Stripping Buffer, no. 21059, Thermo Scientific, Rockford, Ill., USA) at room temperature for 30 min with agitation. Membranes were washed for 3×10 min in TBST-0.1, blocked with blotto-blocking buffer for at least 1 h and re-probed with the corresponding anti-total kinase antibodies (described below) all diluted (1:1000) in blotto-blocking buffer. […]

JAK2 = JAK2 phosphorylation western blot assay; format: cell-based, human; details: 10 microM, HEL or K562 cells (table does not say which)
Description: as §1, §2, §3

[1] = test system: STAT5 transcription (pSPI-GLE1-luc) in HEK-GHR cells; assay: HEK-GHR STAT5 transcription assay (luciferase reporter, rhGH stimulated); format: cell-based, human; details: compound 45 minutes before 50 nM rhGH, six hours, read-out: Activity (IC50, reduction of luciferase activity)
Description: Plasmids: The full-length GHR was subcloned into pcDNA1/ampicillin (Invitrogen) as described previously (Ross R J, Esposito N, Shen X Y, et al., Mol Endocrinol 1997, 11:265-73). The pSPI-GLE1 (serine protease inhibitor 2.1 GAS-like element 1)-luc reporter construct was generated by subcloning the Stat5-binding element from serine protease inhibitor gene together with a minimal thymidine kinase promoter into the pGL2 plasmid (Promega), which contains the firefly luciferase cDNA (Wood T J, Sliva D, Lobie P E, et al. J Biol Chem 1995, 270:9448-53).
Cell culture: HEK-GHR cell line was maintained in Dulbecco's Modified Eagle Medium (DMEM)/F12 supplemented with 10% fetal bovine serum (FBS) and 50 U/ml penicillin/50 U/ml streptomycin. The cells were maintained in a humidified incubator with 5% CO2 at 37° C. Cell culture reagents were obtained from PAA laboratories. The HEK-GHR cell line is a stable clone generated and kindly donated by Prof. Richard Ross (Clinical Sciences, Northern General Hospital, Sheffield, UK). Briefly, HEK-GHR cell line was generated in HEK 293 cells (human kidney embryonal cell line) by transfection with the calcium phosphate procedure of the GHR plasmid with pcDNA3/Neo (Invitrogen). Selection was made using G418 (400 ug/ml, Sigma) (Maamra M, Finidori J, Von Laue S, et al., J Biol Chem 1999, 274(21):14791-8).
Luciferase reporter assay: Transcription assays were performed in HEK-GHR. The HEK-GHR cells were co-transfected with Stat5 luciferase (pSPI-GLE1-luc) reporter vector together with a plasmid constitutively expressing beta-galactosidase by using Metafectene Pro as described by the manufacturer (Biontex Laboratories GmbH, Munich, Germany). Following transfection, HEK-GHR cells were serum-starved for 20 h. Cells were then treated with vehicle (0.1% DMSO) or the indicated compound for 45 minutes prior to the addition of 50 nM recombinant human Growth Hormone (rhGH) (Norditropin, Novo Nordisk) to the medium. Six hours following rhGH addition, cells were harvested with Passive Lysis Buffer (Promega), and levels of luciferase were measured using Luciferase Assay System as described by the manufacturer (Promega). The Galacto-Light Plus System (Applied Biosystems) was used to measure beta-galactosidase activity.
Statistical analysis. The concentration of drug that provokes 50% reduction of luciferase activity (IC50) was determined by using non-linear regression analysis and data were fitted to a log concentration vs normalized response curve in GraphPad software v5 (San Diego, Calif.).

HEL cells = assay: HEL-based MTT cell viability assay; design: species or system human; details: 48 h, read-out: Activity (IC50, reduction of cell viability)
Description: Cell viability was assayed by measuring the mitochondrial reduction of the tetrazolium salt 3-(4,5-methyltiazol-2yl)-2,5diphenyl-tetrazolium bromide] (MTT) (Applichen; A2231,0010) (Mosmann T. J Immunol Methods. 1983 16; 65(1-2):55-63; Chuan Y-C et al 2010. Oncogene. 29 (10), 1531-1542. Cells were seeded in 96-well plates in medium supplemented with 10% FBS (Lonza Cat. No: 14-502F), 2 mM L-Glut (Lonza Cat. No: BE17-605E) and 100 U/ml PEST (Lonza Cat. No: DE17-605E) at a cell density of 5000-20000 cells/well. Cells were seeded at a density according to their exponential growth phase. Vehicle (0.05% DMSO) or drug were added to culture medium at the indicated concentrations (10 to 0.01 microM) during 48 h. Then, MTT (0.3 mg/ml) was added to cells following by incubation for 2-4 h at 37° C. in the dark. The medium was then discarded and the formazan precipitate was solubilized by addition of 20% SDS (Sigma; L-5750) in 0.02N HCl (Panreac; 131020.1611) for 12-16 h. The optical density was measured at 595 nm with the iMark Microplate Reader (BioRad, USA). Data was expressed as percent growth above the level in controls and the results in figures were plotted as means±SEM of each test point from 3 replicates.
Statistical analysis. The concentration of drug that provokes 50% reduction of cell viability (IC50) was determined by using non-linear regression analysis and data were fitted to a log concentration vs normalized response curve in GraphPad software v5 (San Diego, Calif.).

| SMILES | Activity (inhibition of STAT5 phosphorylation) (STAT5) | Activity (inhibition of JAK2 phosphorylation) (JAK2) | pIC50 [1] | pIC50 (HEL cells) | pIC50 ([1]; Homo sapiens) | pIC50 (HEL cells; Homo sapiens) |
| --- | --- | --- | --- | --- | --- | --- |
| CC1(C)CC(=O)C2=C(C1)NC1=C(C(=O)c3cn[nH]c3C1=O)C2c1ccccc1 (stereo not shown) [Compound 5] | + (+represents an inhibition at 10 microM > 50%) | + (+represents an inhibition at 10 microM > 30%) | > 5.30 | > 5.52 | – | – |
| O=C1CCCC2=C1C(c1cccs1)C1=C(N2)C(=O)c2ccccc2C1=O (stereo not shown) [Compound 6, 12-(thiophen-2-yl)-3,4-dihydrobenzo[b]acridine-1,6,11(2H,5H,12H)-trione] | ++ (++represents an inhibition at 10 microM > 50%) | + (+represents an inhibition at 10 microM > 30%) | – | – | > 5.30 | > 5.52 |
| CC1(C)CC(=O)C2=C(C1)OC1=C(C(=O)c3ccccc3C1=O)C2c1cccs1 (stereo not shown) [Compound 7, 3,3-dimethyl-12-(thiophen-2-yl)-3,4-dihydro-1H-benzo[b]xanthene-1,6,11(2H,12H)-trione] | +++ (+++represents an inhibition at 10 microM > 75%) | +++ (+++represents an inhibition at 10 microM > 75%) | – | – | > 6.00 | > 5.00 |
| CC1(C)CC(=O)C2=C(C1)NC1=C(C(=O)c3ncncc3C1=O)C2c1ccccc1 (stereo not shown) [Compound 8] | + (+represents an inhibition at 10 microM > 50%) | +++ (+++represents an inhibition at 10 microM > 75%) | > 5.30 | > 5.52 | – | – |
| O=C1CCCC2=C1C(c1ccc(Br)cc1)C1=C(O2)C(=O)c2ccccc2C1=O (stereo not shown) [Compound 10] | + (+represents an inhibition at 10 microM > 50%) | ++ (++represents an inhibition at 10 microM > 50%) | > 6.00 | > 5.52 | – | – |
| O=C1CCCC2=C1C(c1ccccn1)C1=C(O2)C(=O)c2ccccc2C1=O (stereo not shown) [Compound 11, 12-(pyridin-2-yl)-3,4-dihydro-1H-benzo[b]xanthene-1,6,11(2H,12H)-trione] | + (+represents an inhibition at 10 microM > 50%) | – | – | – | > 6.00 | > 5.00 |
| CC1(C)CC(=O)C2=C(C1)OC1=C(C(=O)c3ccccc3C1=O)C2c1ccccn1 (stereo not shown) [Compound 12] | ++ (++represents an inhibition at 10 microM > 50%) | ++ (++represents an inhibition at 10 microM > 50%) | > 6.00 | > 5.52 | – | – |
| COc1ccc(C2C3=C(CCCC3=O)OC3=C2C(=O)c2ccccc2C3=O)cc1OC (stereo not shown) [Compound 15] | ++ (++represents an inhibition at 10 microM > 50%) | ++ (++represents an inhibition at 10 microM > 50%) | > 5.00 | > 6.00 | – | – |
| O=C1CCCC2=C1C(c1cccnc1)C1=C(N2)C(=O)c2ccccc2C1=O (stereo not shown) [Compound 17] | + (+represents an inhibition at 10 microM > 50%) | +++ (+++represents an inhibition at 10 microM > 75%) | > 5.30 | > 5.52 | – | – |
| CC1(C)CC(=O)C2=C(C1)NC1=C(C(=O)c3ccccc3C1=O)C2c1cnc(Cl)nc1 (stereo not shown) [Compound 19] | – | ++ (++represents an inhibition at 10 microM > 50%) | > 5.30 | > 5.52 | – | – |
| CC1(C)CC(=O)C2=C(C1)OC1=C(C(=O)c3ccccc3C1=O)C2c1ccco1 (stereo not shown) [Compound 20, 12-(furan-2-yl)-3,3-dimethyl-3,4-dihydro-1H-benzo[b]xanthene-1,6,11(2H,12H)-trione] | ++ (++represents an inhibition at 10 microM > 50%) | +++ (+++represents an inhibition at 10 microM > 75%) | – | – | > 6.00 | > 6.00 |
| CC1(C)CC(=O)C2=C(C1)OC1=C(C(=O)c3ccccc3C1=O)C2c1ccoc1 (stereo not shown) [Compound 21] | ++ (++represents an inhibition at 10 microM > 50%) | + (+represents an inhibition at 10 microM > 30%) | > 6.00 | > 5.52 | – | – |
